Experimental data taken from publication PMC7367283, “A PIP2 substitute mediates voltage sensor-pore coupling in KCNQ activation” (Communications Biology, 2020).
Several values for one entry are separate records, joined by “and”; a condition that tells them apart may be missing. Equal values may be shown once.

Tested on: guinea pig ventricular myocytes
Assay: Action potential recording in ventricular myocytes with normal action potentials
Format: cell-based
Design: actional potential duration (APD), Fig. 7h: unit not given here
Settings: for actional potential duration (APD), Fig. 7h: Control-Group, individual cells
Experimental: Fig. 7 Effects of CP1 on IKs and action potentials in cardiomyocytes. a IKs currents in guinea pig ventricular myocytes in the absence and presence of 30 µM CP1 in the whole-cell patch-clamp configuration. Holding potential: −40 mV; testing potentials: −20 to +60 mV with 10-mV increment; returning potential: −20 mV. […] Guinea pig ventricular myocytes were first perfused with 10 µM CP1 and 10 µM chromanol. After APD reached steady state, 10 µM CP1 was constitutively perfused alone. Last, CP1 was washed out for near-full reversal of APD shortening. g Effects of 0.2 µM CP1 on LQT action potentials. To mimic the LQT, 100 µM moxifloxacin was applied 2 h before the treatment of CP1. h Change of action potential duration after application of different [CP1]s (n = 5–7). Tukey–Kramer ANOVA test was used to compare control cells in different CP1 concentration, # is significant at P < 0.05. Unpaired two-tailed Student t tests were used to compare control and moxifloxacin cells at different CP1 concentration: * is significant at P < 0.05.
In ventricular myocytes, the duration and the morphology of action potentials are determined by various ion channels. Mutations in many of these channels and drugs that modify channel functions, such as an increase in inward Na^+ currents or decrease in outward K^+ currents, may lead to a prolonged action potential duration, which results in an inherited or acquired long QT syndrome that predisposes afflicted patients to cardiac arrhythmia. An enhancement of the outward IKs current may be able to counter these mutations or drug effects, and restore the action potential duration to more normal values. […] Next, we used an IKr blocker (Moxifloxacin, Moxi) to prolong action potentials and then applied various concentrations of CP1.
The use of guinea pigs was approved by the Stony Brook University Institutional Animal Care and Use Committee. Single ventricular myocytes were acutely enzymatically isolated from guinea pig heart as previously described. Guinea pigs, weighing 300–500 g, were sacrificed by peritoneal injection of sodium pentobarbitone (1 ml, 390 mg/ml). The isolated cells were stored in KB solution containing (in mM) 83 KCl, 30 K2HPO4, 5 MgSO4, 5 Na pyruvate, 5 β-OH-butyric acid, 20 creatine, 20 taurine, 10 glucose, and 0.5 EGTA, pH 7.2.
Action potentials were recorded with whole-cell patch-clamp recording techniques. Current-clamp configuration was used. Freshly isolated guinea pig cardiac myocytes were placed at 1 Hz with a stimulus of 180-pA amplitude and 10-mS duration. The APD was determined at 90% repolarization. Several minutes were allowed for the APD to reach steady state before data were collected. Typical Tyrode mimic AP Solution for action potential recording was used. The bath solution is composed of (in mM) 140 NaCl, 3 KCl, 1 MgCl2, 1.8 CaCl2, 10 HEPES, and 10 Glucose, pH 7.4. The pipette solution is composed of (in mM) 115 K-aspartic acid, 35 KOH, 3 MgCl2, 10 HEPES, 11 EGTA, 5 Glucose, and 3 MgATP, pH 7.4.

**Q.** Which action potential duration (0.2 µM CP1, control myocytes) does the source give for `O=S(=O)([O-])Oc1c(-c2sc3c(ccc4cccc(Cl)c43)c2OS(=O)(=O)[O-])[nH]c2ccc(Br)cc12.[Na+].[Na+]` [CP1, DISODIUM 5-BROMO-2-[9-CHLORO-3-(SULFONATOOXY) NAPHTHO [1,2-B] THIEN-2-YL]-1H-INDOL-3-YL SULFATE] here?
**A.** The action potential duration was “did not alter action potential duration”.

**Q.** What about the “action potential duration (APD)” value (10 µM CP1 alone) of the same compound?
**A.** Its value is “significantly shortened”.

**Q.** And the “action potential duration (APD)” value (10 µM CP1 perfused together with 10 µM chromanol 293B)?
**A.** Its value is “not changed”.

**Q.** What about the “action potentials in control cells” value (0.6 and 6 µM CP1) of the same compound?
**A.** Its value is “shortened”.

**Q.** What about the “actional potential duration (APD), Fig. 7h” value (shortened to “actional potential duration”) (0.2 µM CP1) of the same compound?
**A.** The value was 682 and 570 and 576 and 550 and 596 and 520.

**Q.** And the “actional potential duration” value (0.6 µM CP1)?
**A.** The value was 473 and 609 and 463 and 428 and 542 and 511 and 475.

**Q.** And the “actional potential duration” value (6 µM CP1)?
**A.** Its value is 347 and 378 and 362 and 454.
